Results published in PMC7178511, “Antimicrobial Activity and DNA/BSA Binding Affinity of Polynuclear Silver(I) Complexes with 1,2-Bis(4-pyridyl)ethane/ethene as Bridging Ligands” (Bioinorganic Chemistry and Applications, 2020).
Marks after values point to notes of the source that are not given here.

Tests used:
[1] = system: Salmonella pullorum ATCC 13036; assay: Broth microdilution MIC, S. pullorum; type: cell-based; conditions: S. pullorum ATCC 13036; Luria-Bertani broth, 24 h, 37°C
Protocol: (§1) Minimal inhibitory concentration (MIC) values against Pseudomonas aeruginosa PA01, Staphylococcus aureus ATCC 43300, Salmonella enteritidis ATCC 13075, Salmonella pullorum ATCC 13036, Escherichia coli NCTC 9001, Listeria monocytogenes NCTC 11994, and Enterococcus faecalis ATCC 29212 were determined in Luria-Bertani broth (10.0 g/L tryptone, 10.0 g/L NaCl, 5.0 g/L yeast extract, pH 7.2) in accordance with the standard broth microdilution assay for bacteria that grow aerobically, as recommended by the CLSI (Clinical and Laboratory Standards Institute, Methods for Dilution Antimicrobial Susceptibility Tests for Bacteria That Grow Aerobically; Approved Standard—Tenth Edition M07-A10. CLSI). The highest tested concentration was 500 μg/mL, and the inocula were 1^·10^6 cfu/mL.

[2] = target: T1, bovine serum albumin (BSA) (Bos taurus, UniProt P02769); assay: BSA tryptophan fluorescence quenching; type: binding; conditions: BSA 13.1 μM, Tris buffer pH 7.4
T1 construct: purchased Sigma-Aldrich
T1 sequence (P02769 25-607): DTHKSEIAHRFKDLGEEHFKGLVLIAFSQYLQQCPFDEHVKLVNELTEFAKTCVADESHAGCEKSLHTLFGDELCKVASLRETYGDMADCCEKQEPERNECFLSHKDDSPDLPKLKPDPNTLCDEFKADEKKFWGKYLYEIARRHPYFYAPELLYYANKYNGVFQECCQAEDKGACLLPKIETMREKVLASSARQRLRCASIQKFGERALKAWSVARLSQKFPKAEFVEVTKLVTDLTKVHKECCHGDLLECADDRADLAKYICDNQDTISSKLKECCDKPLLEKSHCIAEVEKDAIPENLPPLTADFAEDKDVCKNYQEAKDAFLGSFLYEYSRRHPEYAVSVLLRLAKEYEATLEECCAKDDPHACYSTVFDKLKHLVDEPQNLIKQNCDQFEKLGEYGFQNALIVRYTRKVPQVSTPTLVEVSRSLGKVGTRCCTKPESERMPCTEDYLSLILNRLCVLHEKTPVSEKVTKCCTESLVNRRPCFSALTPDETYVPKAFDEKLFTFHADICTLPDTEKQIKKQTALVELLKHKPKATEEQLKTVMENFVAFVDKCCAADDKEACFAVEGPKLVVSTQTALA
Protocol: The protein binding study was performed by tryptophan fluorescence quenching experiments using BSA (13.1 μM) in Tris buffer solution (pH 7.4). The quenching of the emission intensity of tryptophan residues of BSA at 352 nm was monitored using the increasing concentration of the complexes 1–3 (up to 464.9 μM). Fluorescence spectra were recorded in the range 280–500 nm with an excitation wavelength of 275 nm. The corresponding binding constants of the complexes (KA) and apparent binding sites (n) were calculated as it was previously explained.

[3] = system: genomic DNA isolated from C. albicans ATCC 10231; assay: DNA interaction assay using gel electrophoresis; type: binding, Candida albicans; conditions: 40, 100 and 400 μM complex, 2 h, 30°C, Tris buffer pH 8.5
Protocol: DNA interaction assay using gel electrophoresis has also been conducted according to the previously published procedure using high molecular weight (HMW) genomic DNA isolated from C. albicans ATCC 10231. Briefly, DNA (50 ng/μL final concentration) was incubated with 40, 100, and 400 μM final concentration of silver(I) complexes 1–3 in Tris buffer, pH 8.5 in 50 μL reaction volume. After 2 h incubation at 30°C, 10 μL aliquots were taken, mixed with loading dye, and loaded on agarose gel. Control contained an appropriate volume of DMSO. DNA samples were run, 500 ng per lane, on 0.8% agarose gel with ethidium bromide (EthBr) against O'GeneRuler™ 1 kb Plus DNA Ladder (Thermo Scientific™) at 60 V for 1 h. Gels were visualized and analyzed using the Gel Doc EZ system (Bio-Rad, Life Sciences, Hercules, USA), equipped with the Image Lab™ Software.

[4] = system: Pseudomonas aeruginosa PAO1; assay: Broth microdilution MIC, P. aeruginosa; type: cell-based; conditions: P. aeruginosa PAO1; Luria-Bertani broth, 24 h, 37°C
Protocol: as §1

[5] = system: C. glabrata ATCC 2001; assay: Broth microdilution MIC, C. glabrata; type: cell-based, Candida glabrata; conditions: C. glabrata ATCC 2001; RPMI 1640 with 2% glucose
Protocol: (§2) Stock solutions of bpa, bpe, and silver(I) complexes 1–3 were prepared fresh in DMSO (50 mg/mL) and kept at 4°C prior to use. Susceptibility testing of Candida spp. (C. albicans ATCC 10231, C. krusei ATCC 6258, C. parapsilosis ATCC 22019, and C. glabrata ATCC 2001) was performed according to CLSI broth microdilution guidelines (Clinical and Laboratory Standards Institute, Reference Method for Broth Dilution Antifungal Susceptibility Testing of Yeasts—Third Edition: Approved Standard M27-A3; Clinical and Laboratory Standards Institute, Reference Method for Broth Dilution Antifungal Susceptibility Testing of Yeasts: Fourth Informational Supplement M27-S4), in RPMI 1640 medium (Roswell Park Memorial Institute medium) containing 2% glucose (w/v). The highest tested concentration was 500 μg/mL, and the inocula were 1^·\10^5 colony forming units (cfu)/mL.

[6] = system: Escherichia coli NCTC 9001; assay: Broth microdilution MIC, E. coli; type: cell-based; conditions: E. coli NCTC 9001; Luria-Bertani broth, 24 h, 37°C
Protocol: as §1

[7] = system: Staphylococcus aureus ATCC 43300; assay: Broth microdilution MIC, S. aureus; type: cell-based; conditions: S. aureus ATCC 43300; Luria-Bertani broth, 24 h, 37°C
Protocol: as §1

[8] = system: Salmonella enteritidis ATCC 13075; assay: Broth microdilution MIC, S. enteritidis; type: cell-based; conditions: S. enteritidis ATCC 13075; Luria-Bertani broth, 24 h, 37°C
Protocol: as §1

[9] = system: Enterococcus faecalis ATCC 29212; assay: Broth microdilution MIC, E. faecalis; type: cell-based; conditions: E. faecalis ATCC 29212; Luria-Bertani broth, 24 h, 37°C
Protocol: as §1

[10] = system: C. parapsilosis ATCC 22019; assay: Broth microdilution MIC, C. parapsilosis; type: cell-based, Candida parapsilosis; conditions: C. parapsilosis ATCC 22019; RPMI 1640 with 2% glucose
Protocol: as §2

[11] = system: C. krusei ATCC 6258; assay: Broth microdilution MIC, C. krusei; type: cell-based, Candida krusei; conditions: C. krusei ATCC 6258; RPMI 1640 with 2% glucose
Protocol: as §2

[12] = system: Listeria monocytogenes NCTC 11994; assay: Broth microdilution MIC, L. monocytogenes; type: cell-based; conditions: L. monocytogenes NCTC 11994; Luria-Bertani broth, 24 h, 37°C
Protocol: as §1

[13] = system: C. albicans expressing red fluorescent protein; assay: C. albicans filamentation study; type: cell-based, Candida albicans; conditions: MIC80 of complex, 6 h, 37°C, RPMI 1640 with 10% FBS
Protocol: The suspension of C. albicans expressing red fluorescent protein was prepared in RPMI 1640 medium with 10% (v/v) fetal bovine serum (FBS) to induce hyphae formation. The suspension was then treated with MIC80 concentrations of 1–3 at 37°C shaking. Cells treated with DMSO served as the control. After 6 h of incubation, the results were observed by a fluorescence microscope (Olympus BX51, Applied Imaging Corp., San Jose, CA, United States) under 20× magnification.

[14] = system: C. albicans ATCC 10231; assay: Broth microdilution MIC, C. albicans; type: cell-based, Candida albicans; conditions: C. albicans ATCC 10231; RPMI 1640 with 2% glucose
Protocol: as §2

[15] = system: calf thymus DNA (ctDNA); assay: Competitive EthBr-DNA fluorescence binding experiment; conditions: Fluorescent titration, pH 7.4
Protocol: The competitive DNA-silver(I) complex binding experiments were carried out in the buffer (pH 7.4) by maintaining [DNA]/[EthBr] = 5, while increasing the concentration of the complexes 1–3. Each sample solution was scanned in the wavelength range 525–800 nm with an excitation wavelength of 520 nm. The Stern-Volmer constants (Ksv), which represent a measure of the binding propensity of the complexes to DNA, were calculated using the following equation [29]:(2) F0/F=1+Kqτ0complex=1+Ksvcomplex, where F0 and F are the fluorescence intensities in the absence and presence of the complexes, respectively. Kq stands for bimolecular quenching constant and τ0 (10^−8 s) is the lifetime of the fluorophore in the absence of the quencher. The binding constants (KA) and apparent binding sites (n) can be calculated by using the following equation [28]:(3) logF0−F/F=log KA+n logcomplex, where KA stands for the binding constant of the silver(I) complex with ctDNA and n stands for the apparent number of binding sites.

[16] = system: human lung fibroblast cell line MRC-5; assay: MTT assay on a human fibroblast cell line; type: cell-based; conditions: MRC-5, MTT, 48 h
Protocol: Antiproliferative activity was tested by 3-(4,5-dimethylthiazol-2-yl)-2,5-diphenyltetrazolium bromide (MTT) assay on a human lung fibroblast cell line (MRC-5; ATCC collection). Pregrown (24 h) cell monolayers were incubated in the media containing the tested compounds at concentrations ranging from 5 to 500 μg/mL and the cell viability was measured after 48 h. RPMI 1640 medium supplemented with 100 μg/mL streptomycin, 100 U/mL penicillin, and 10% (v/v) FBS (all from Sigma, Munich, Germany) was used for the cultivation of MRC-5 cell line. Cells were maintained as a monolayer (1^·10^4 cells per well) in RPMI 1640 and grown in a humidified atmosphere of 95% air and 5% CO2 at 37°C. The extent of MTT reduction was measured spectrophotometrically at 540 nm using Tecan Infinite 200 Pro multiplate reader (Tecan Group Ltd, Männedorf, Switzerland), and the cell survival was expressed as a percentage of the control (untreated cells). Cytotoxicity was expressed as the concentration of the compound inhibiting cell growth by 50% (IC50).

[17] = system: C. albicans infected zebrafish; design: method as in PMID 30952084; conditions: at MIC doses; cited from earlier work
[18] = system: C. albicans; design: method as in PMID 30952084; conditions: at MIC doses; cited from earlier work

Row | SMILES | MIC [1] [µg/mL] | Tryptophan fluorescence quenching (emission decrease at 352 nm) [2] [%] | n (number of binding sites per albumin) [2] | interaction with C. albicans genomic DNA (emission of EthBr-DNA system on gel) [3] | MIC [4] [µg/mL] | MIC [5] [µg/mL] | MIC [6] | MIC [7] [µg/mL] | MIC [8] [µg/mL] | MIC [9] [µg/mL] | MIC [10] [µg/mL] | MIC [11] [µg/mL] | MIC [12] [µg/mL] | effect on C. albicans hyphae formation [13] | MIC [14] [µg/mL] | Hypochromism [15] [%] | IC50 (cytotoxic effect on MRC-5 cells) [16] | outcome of infected zebrafish [17] | effect on C. albicans filamentation [18] | also measured
1 | O=[N+]([O-])[O-].[Ag+].c1cc(CCc2ccncc2)ccn1 [Complex 1, {[Ag(bpa)]NO3}n] | 25 | 65.65 | 1.14 | Slightly higher interaction | 50 | 6.25 | 12.5^a μg/mL | 50 | 50 | 12.5 | 3.1 | 6.25 | 50 | did not significantly affect the hyphae formation | 6.25 | 11.3 | 40^b μg/mL | – | – | effect on C. albicans growth under filamentation conditions [13]: reduced the growth
2 | O.O=S(=O)([O-])C(F)(F)F.[Ag+].c1cc(CCc2ccncc2)ccn1.c1cc(CCc2ccncc2)ccn1 [Complex 2, {[Ag(bpa)2]CF3SO3^.H2O}n] | 12.5 | 76.10 | 1.10 | Slightly higher interaction | 200 | 12.5 | 12.5 µg/mL | 200 | 50 | 25 | 2.5 | 3.1 | 50 | decreased number and length of hyphae | 6.25 | 12.0 | 30 µg/mL | – | – | –
3 | O=C([O-])C(F)(F)F.[Ag+].c1cnc2ccc3ncccc3c2c1 [[Ag(CF3COO)(4,7-phen)]n] | – | – | – | – | – | – | – | – | – | – | – | – | – | – | – | – | – | rescued the infected zebrafish of the lethal infection outcome | totally prevented C. albicans filamentation | –
4 | O=[N+]([O-])[O-].[Ag+].c1cnc2ccc3ncccc3c2c1 [[Ag(NO3)(4,7-phen)]n] | – | – | – | – | – | – | – | – | – | – | – | – | – | – | – | – | – | rescued the infected zebrafish of the lethal infection outcome | totally prevented C. albicans filamentation | –
5 | C(=C\c1ccncc1)/c1ccncc1.O=S(=O)([O-])C(F)(F)F.[Ag+] [Complex 3, {[Ag(bpe)]CF3SO3}n] | 250 | 81.13 | 1.30 | – | 25 | 25 | 12.5 µg/mL | 100 | 200 | 25 | 3.1 | 6.25 | 25 | did not significantly affect the hyphae formation | 25 | 3.8 | 40 µg/mL | – | – | K A [15]: 59.16 M⁻¹
